“Also recorded” adds a separate entry of the source.
Columns and labels:
[1] = test system: BWbacA-singleΔtolC strain; assay: Growth inhibition / MIC in 2YT liquid medium; format: cell-based, E. coli; conditions: for MIC: BWbacA-singleΔtolC strain
Procedure: (§1) Bacteria were grown in 2YT broth supplemented, when required, with ampicillin or kanamycin at concentrations of 100 and 50 µg/ml, respectively. The BWΔtolC strain was obtained from the Keio collection. The BWΔbacAΔtolC and BWbacA-singleΔtolC were generated by P1 transduction of the ΔtolC::Kan^R cassette from BWΔtolC strain to BWΔbacA and DMEG9 recipient strains, respectively. The strains S. aureus RN4220 and S. pneumoniae R6 were used to evaluate the antibacterial activity of certain compounds. S. aureus was grown on BHI (Brain Heart Infusion) broth and S. pneumoniae was grown on Colombia broth supplemented with 5% horse blood.
(§2) For compounds displaying inhibitory activity on BacA catalysis, their antibacterial activity was tested on different E. coli strains by monitoring bacterial growth in the presence of compounds (125, 250 and 500 µM). One colony was cultured in 10 ml of 2YT liquid medium and incubated at 37℃ for 6 h. The absorbance of the culture at 600 nm (A600) was measured to prepare a bacterial suspension in 2YT liquid medium at 15.10^6 CFU/ml (A600 = 1 corresponds to 3.10^8 CFU/ml). The bacterial suspension (200-µl) was then grown on 96-well plates in the presence or not of compounds (5-µl), which was added from a stock solution prepared in DMSO. Negative controls were then performed by growing the cells without inhibitors in 2YT medium and in 2YT medium supplemented with 2.5% of DMSO. The plates were incubated at 37℃ overnight with A600 measurements every 10 min using a Tecan F200 PRO microplate reader (iControl software).

PgpB = molecular target: T1, PgpB (Escherichia coli, UniProt P0A924); assay: C55-PP phosphatase assay of PgpB; format: biochemical, E. coli; conditions: 100 µM compound; data not shown
T1 construct: made in house
T1 sequence (P0A924 whole entry): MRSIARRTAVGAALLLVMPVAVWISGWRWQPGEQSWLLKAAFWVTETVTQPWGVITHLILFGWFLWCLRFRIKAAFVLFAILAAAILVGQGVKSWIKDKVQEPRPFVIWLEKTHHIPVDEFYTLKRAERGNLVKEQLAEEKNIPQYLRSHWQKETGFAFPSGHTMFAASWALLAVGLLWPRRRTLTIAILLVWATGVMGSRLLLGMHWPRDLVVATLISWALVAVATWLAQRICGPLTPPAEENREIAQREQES
Procedure: C43(DE3) cells carrying pTrcBac30 plasmid were used for the expression of N-terminally His6-tagged BacA (His6-BacA) protein from E. coli. Cells were grown in 2YT-ampicillin at 37 °C and when the OD600 reached 0.9, the temperature of the culture was decreased to 22 °C and protein expression was induced by addition of 1 mM IPTG. Incubation was continued overnight at 22 °C and bacteria were harvested in the cold and washed in a buffer containing 20 mM Tris-HCl, pH 7.4, 0.4 M NaCl, 10% glycerol and 10 mM β-mercaptoethanol (buffer A). The cells were disrupted by three successive passages through a French press and the suspension was centrifuged at 200,000× g, 4 °C for 45 min. The pellet of membranes was washed with buffer A. The membranes were resuspended in buffer A supplemented by 2% DDM detergent. […] Fractions containing the BacA protein were subjected to an additional gel-filtration purification step on Superdex 200 (HiLoadTM 16/600 SuperdexTM 200) equilibrated in 0.1% DDM-containing buffer A. 1-ml fractions were collected and analysed by SDS-PAGE. […]
The C55-PP phosphatase activity of BacA was assessed by measuring the percentage of transformation of [^14C]C55-PP into [^14C]C55-P upon incubation with BacA by TLC analysis. […] The radioactive spots were located and quantified with a radioactivity scanner. […] The C55-PP phosphatase activity of PgpB was measured as described for BacA.

BWΔbacAΔtolC strain = assay: Growth inhibition in 2YT liquid medium; format: cell-based, E. coli; conditions: BacA and TolC depleted; 500 µM compound
Procedure: as §1
For compounds displaying inhibitory activity on BacA catalysis, their antibacterial activity was tested on different E. coli strains by monitoring bacterial growth in the presence of compounds (125, 250 and 500 µM). One colony was cultured in 10 ml of 2YT liquid medium and incubated at 37℃ for 6 h. The absorbance of the culture at 600 nm (A600) was measured to prepare a bacterial suspension in 2YT liquid medium at 15.10^6 CFU/ml (A600 = 1 corresponds to 3.10^8 CFU/ml). […] The plates were incubated at 37℃ overnight with A600 measurements every 10 min using a Tecan F200 PRO microplate reader (iControl software). […]

[2] = test system: DMEG9 strain, alias BWbacA-single; assay: Growth inhibition in 2YT liquid medium; format: cell-based, E. coli; conditions: PAP2-depleted DMEG9; 500 µM compound
Procedure: as §2
(§3) Two compounds, 3 and 5, were assessed for antibacterial activity using the broth microdilution method against the E. coli BW25113 wild type strain. […] Considering the plurality of C55-PP phosphatases in E. coli, the inhibition of BacA may not induce growth inhibition as long as the PAP2 enzymes (PgpB, YbjG, and LpxT) are functional. Consequently, compounds 3 and 5 were tested against a BW25113 variant in which the PAP2 enzymes were depleted (DMEG9 strain, alias BWbacA-single). […]

BWΔtolC strain = assay: Growth inhibition in 2YT liquid medium (off-target activity); format: cell-based, E. coli
Procedure: as §1, §2

[3] = test system: E. coli BW25113 wild type strain; assay: Growth inhibition in 2YT liquid medium; format: cell-based; conditions: 500 µM compound
Procedure: as §2, §3

[4] = test system: BWbacA-singleΔtolC strain carrying the empty vector (pTRCH30); assay: Growth inhibition, control strain carrying the empty vector; format: cell-based, E. coli; conditions: 500 µM compound
Procedure: as §2
(§4) To further assess the specificity of compounds 3 and 5 with respect to BacA, they were tested against the strain depleted of both TolC and PAP2 but overexpressing an ectopic copy of the bacA gene on a plasmid.

[5] = test system: BWbacA-singleΔtolC strain overexpressing an ectopic copy of the bacA gene on a plasmid; assay: Growth inhibition upon bacA overexpression; format: cell-based, E. coli; conditions: bacA overexpressed in trans; 500 µM compound
Procedure: as §2, §4

O=C(O)c1csc(S(=O)(=O)Nc2ccc3sccc3c2)c1 [Compound 3]
MIC [1]: 169 µg/mL
MIC ([1]; 125, 250 and 500 µM tested): 500 µM
class of antibacterial activity (Figure S2) ([1]; BWΔtolC and BWbacA-singleΔtolC strains, 250 and 500 µM): antibacterial activity on both strains
growth inhibition ([1]; TolC/PAP2-depleted BWbacA-singleΔtolC, 500 µM compound): complete growth inhibition; also recorded: total growth inhibition
inhibition of PgpB (PgpB): not inhibited
growth inhibition (BacA-independent activity) (BWΔbacAΔtolC strain): moderate inhibition; also recorded: significant, although moderate, BacA-independent activity
growth inhibition [2]: no growth inhibition
increase of the doubling time of cells (BWΔtolC strain; BWΔtolC, 500 µM compound): 3 fold
growth inhibition (BWΔtolC strain; TolC-depleted BWΔtolC, 500 µM compound): moderate inhibition; also recorded: significant growth inhibition
Off-target activity (BWΔtolC strain; antibacterial activity against BWΔtolC): Yes
growth inhibition [3]: No growth inhibition
growth inhibition [4]: total growth inhibition
growth inhibition upon bacA overexpression [5]: partially alleviated growth inhibition; also recorded: susceptibility was decreased at the level observed with the strain depleted of TolC alone

Source: article PMC9127117, “Towards discovery of inhibitors of the undecaprenyl-pyrophosphate phosphatase BacA by virtual high-throughput screening” (Computational and Structural Biotechnology Journal, 2022)
